Our source for the inhibition values is publication PMC6934184, “Selective DNA-PKcs inhibition extends the therapeutic index of localized radiotherapy and chemotherapy” (The Journal of Clinical Investigation, 2019).

In the assay the target is T1, KDR (VEGFR2) (Homo sapiens, UniProt P35968).
T1 construct: purchased Thermo Fisher Scientific (Life Technologies) SelectScreen
The experiment in a line: SelectScreen Z'LYTE. The format is biochemical. The gist of the method: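 SelectScreen broad panel; activity (Z'LYTE, Adapta) plus binding formats. ATP: Km app for CSF1R Z'LYTE; 10 for CAMK1 Adapta. Readout = % per kinase.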

T1 sequence (P35968 20-1356): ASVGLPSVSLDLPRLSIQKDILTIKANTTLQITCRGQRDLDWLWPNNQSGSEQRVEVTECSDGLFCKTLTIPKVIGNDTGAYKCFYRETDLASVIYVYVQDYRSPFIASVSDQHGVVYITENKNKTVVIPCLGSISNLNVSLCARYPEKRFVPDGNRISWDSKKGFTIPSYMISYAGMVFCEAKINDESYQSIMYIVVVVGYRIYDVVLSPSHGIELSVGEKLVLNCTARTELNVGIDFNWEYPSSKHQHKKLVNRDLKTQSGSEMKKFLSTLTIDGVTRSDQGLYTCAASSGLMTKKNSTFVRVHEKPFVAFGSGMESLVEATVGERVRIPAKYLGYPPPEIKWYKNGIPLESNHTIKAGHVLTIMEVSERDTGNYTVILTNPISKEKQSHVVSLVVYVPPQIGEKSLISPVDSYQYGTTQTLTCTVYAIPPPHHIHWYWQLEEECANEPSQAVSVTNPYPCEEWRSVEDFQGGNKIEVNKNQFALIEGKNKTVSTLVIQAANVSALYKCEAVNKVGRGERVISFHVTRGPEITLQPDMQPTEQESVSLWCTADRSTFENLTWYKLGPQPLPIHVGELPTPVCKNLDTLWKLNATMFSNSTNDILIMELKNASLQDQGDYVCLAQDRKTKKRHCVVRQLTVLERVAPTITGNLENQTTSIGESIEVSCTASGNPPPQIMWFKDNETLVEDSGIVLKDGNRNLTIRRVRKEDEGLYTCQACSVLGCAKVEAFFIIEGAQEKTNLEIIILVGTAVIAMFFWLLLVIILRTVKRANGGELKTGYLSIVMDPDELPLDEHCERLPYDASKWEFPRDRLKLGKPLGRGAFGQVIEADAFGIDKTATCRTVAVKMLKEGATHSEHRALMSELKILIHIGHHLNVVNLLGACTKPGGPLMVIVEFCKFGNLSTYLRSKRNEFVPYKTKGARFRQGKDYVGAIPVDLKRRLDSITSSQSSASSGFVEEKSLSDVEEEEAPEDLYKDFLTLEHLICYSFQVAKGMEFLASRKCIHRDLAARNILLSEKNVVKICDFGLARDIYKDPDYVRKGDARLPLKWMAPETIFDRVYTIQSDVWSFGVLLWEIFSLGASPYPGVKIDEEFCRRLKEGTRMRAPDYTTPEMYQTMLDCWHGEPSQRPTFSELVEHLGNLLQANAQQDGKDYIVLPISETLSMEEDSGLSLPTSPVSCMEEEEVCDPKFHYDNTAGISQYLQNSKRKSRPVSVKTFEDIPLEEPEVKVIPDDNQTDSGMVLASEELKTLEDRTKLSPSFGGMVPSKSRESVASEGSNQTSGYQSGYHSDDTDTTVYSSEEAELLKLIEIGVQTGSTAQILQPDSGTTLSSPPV

As to `CN(C(=O)CN1CCOCC1)c1ccc2sc3c(-c4cccc5c(=O)cc(N6CC7CCC(C6)O7)oc45)cccc3c2c1` [NU5455], the inhibition (commonly how much of the control response was suppressed) at 1 µM was found to be 1.8%.
